Reference: PMC12596218 (Journal of Lipid Research, 2025)
“And” between values parts separate entries of the source, which are not always exact repeats. Equal values may be shown once.

Tests used:
[1] = target: T1, OATP1B1 (Homo sapiens, UniProt Q9Y6L6); experiment: [3H]E1S transport inhibition assay in OATP1B1-HEK293 cells; format: cell-based; conditions: 200 nM [3H]E1S, 10 min; two independent experiments
T1 construct: stably transfected with the full open reading frames of human NTCP, ASBT, SOAT, OATP1B1, OATP1B3, OATP2B1, and murine Asbt (mAsbt); expressed in transfected cells; host or cells: HEK293, stably transfected (OATP1B1-HEK), tetracycline-induced
T1 sequence (Q9Y6L6 1-691): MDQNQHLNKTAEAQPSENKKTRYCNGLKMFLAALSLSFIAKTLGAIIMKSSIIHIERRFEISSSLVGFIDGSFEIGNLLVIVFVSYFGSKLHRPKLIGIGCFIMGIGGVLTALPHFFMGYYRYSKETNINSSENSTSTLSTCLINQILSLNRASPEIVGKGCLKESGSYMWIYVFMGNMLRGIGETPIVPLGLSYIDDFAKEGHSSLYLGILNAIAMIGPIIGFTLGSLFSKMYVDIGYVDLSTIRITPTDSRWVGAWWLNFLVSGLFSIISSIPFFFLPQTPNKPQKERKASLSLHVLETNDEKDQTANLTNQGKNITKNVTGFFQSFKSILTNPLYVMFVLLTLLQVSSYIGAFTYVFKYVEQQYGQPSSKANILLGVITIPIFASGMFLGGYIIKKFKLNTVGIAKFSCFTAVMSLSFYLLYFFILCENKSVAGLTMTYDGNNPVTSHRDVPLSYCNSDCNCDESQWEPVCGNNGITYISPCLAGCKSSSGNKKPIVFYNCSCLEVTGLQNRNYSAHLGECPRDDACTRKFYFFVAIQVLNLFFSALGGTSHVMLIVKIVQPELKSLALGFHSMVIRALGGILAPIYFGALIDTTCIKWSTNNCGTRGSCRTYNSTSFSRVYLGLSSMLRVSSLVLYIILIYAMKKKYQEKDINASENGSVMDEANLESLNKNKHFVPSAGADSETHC
Source text: Human embryonic kidney HEK293 cells, stably transfected with the full open reading frames of human NTCP, ASBT, SOAT, OATP1B1, OATP1B3, OATP2B1, and murine Asbt (mAsbt) were used as reported ([18], [20], [21], [22], [23]). The NTCP, ASBT, and mAsbt constructs were C-terminally tagged with the FLAG epitope, and the SOAT construct was C-terminally tagged with green fluorescent protein. Non-transfected Flp-In HEK293 cells (Thermo Fisher Scientific) served as the control. All cell lines were maintained at 37°C, 5% CO2 and 95% humidity in DMEM/F-12 medium (Thermo Fisher Scientific) supplemented with 10% fetal calf serum (Sigma-Aldrich), 4 mM L-glutamine (PAA) and penicillin/streptomycin (PAA). Expression of the respective carrier protein was induced by tetracycline treatment at 1 μg/ml (Carl Roth GmbH + Co. KG).
(§1) Cells were seeded onto poly-L-lysine-coated 96-well plates, induced with 1 μg/ml tetracycline, and grown to confluence over 72 h at 37°C. Then, cells were washed with tempered (37°C) phosphate-buffered saline (PBS, containing 137.0 mM NaCl, 2.7 mM KCl, 1.5 mM KH2PO4, and 7.3 mM Na2HPO4, at pH 7.4) and preincubated with 80 μl sodium transport buffer (STB, containing 142.9 mM NaCl, 4.7 mM KCl, 1.2 mM MgSO4, 1.2 mM KH2PO4, 1.8 mM CaCl2, and 20.0 mM HEPES, at pH 7.4) for 5 min at 37°C. For inhibition studies, the medium was replaced by 80 μl STB containing the respective inhibitor or solvent alone and cells were further incubated for 5 min at 37°C. Transport experiments were started by adding 20 μl of a 5-fold concentrated substrate solution (solved in STB). For transport experiments under sodium-free conditions the same buffer composition was used as for STB, but sodium chloride was substituted with equimolar concentrations of choline chloride as previously reported ([20], [24]). Transport experiments were stopped by washing twice with ice-cold PBS and the plates were kept cool on ice until adding the lysis buffer [1% sodium dodecyl sulfate (SDS) and 1 N NaOH]. Then, the cell-associated radioactivity of the respective tritium-labeled substrate or ligand was quantified by liquid scintillation counting using MicroScint-20 scintillation cocktail (Revvity) in a Packard Microplate Scintillation Counter TopCount NXT (Packard Instrument Company). For IC50 transport inhibition measurements, the mean uptake values measured in non-carrier-expressing HEK293 control cells were defined as 0% uptake control and were subtracted from all other values. Values from cells without inhibitor and solvent alone were set to 100%. Finally, all net transport data were expressed as uptake or binding as % of control. All transport or inhibition graphs were generated with GraphPad Prism 6 (GraphPad). Determination of half maximal inhibitory concentrations (IC50) was done by nonlinear regression analysis using the equation log (inhibitor) versus response—variable slope settings. All data points of the IC50 curves represent means ± SD of quadruplicate determinations. For Km measurements, BS uptake in the absence of sodium was regarded as carrier-independent unspecific uptake and was subtracted from the transport rates in the presence of sodium to obtain carrier-specific uptake rates (indicated as dashed lines). From the specific uptake rates, Michaelis Menten Km values were calculated by non-linear regression analysis.

[2] = target: T2, ASBT S294T/I295V (ASBT→mAsbt) (Homo sapiens, UniProt Q12908, I295V/S294T); experiment: [3H]TC transport and inhibition assay, ASBT→mAsbt mutant in HEK293 cells; format: cell-based; conditions: for Inhibition curve/AUC of ASBT→mAsbt mutant compared to wild-type ASBT: 1 μM [3H]TC, 10 min, AUC combined from two experiments
T2 construct: stably transfected with the full open reading frames of human NTCP, ASBT, SOAT, OATP1B1, OATP1B3, OATP2B1, and murine Asbt (mAsbt); expressed in transfected cells; host or cells: HEK293, stably transfected
T2 sequence (Q12908 1-348 S294T/I295V): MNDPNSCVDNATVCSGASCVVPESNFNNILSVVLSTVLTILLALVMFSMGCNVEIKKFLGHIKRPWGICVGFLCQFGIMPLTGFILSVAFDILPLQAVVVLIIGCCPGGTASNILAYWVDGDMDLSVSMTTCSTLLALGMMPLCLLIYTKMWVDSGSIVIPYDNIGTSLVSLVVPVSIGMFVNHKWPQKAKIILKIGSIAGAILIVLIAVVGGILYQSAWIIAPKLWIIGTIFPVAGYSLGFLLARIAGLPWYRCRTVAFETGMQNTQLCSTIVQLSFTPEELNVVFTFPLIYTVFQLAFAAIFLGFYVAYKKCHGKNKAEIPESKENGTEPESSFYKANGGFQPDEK
Description: Amplification was performed on a peqSTAR XS PEQLAB PCR cycler (Peqlab) with Pfu DNA polymerase (M774A; Promega) in 18 cycles under the following conditions: initial denaturation for 2 min at 95°C, denaturation for 30 s at 95°C, annealing for 1 min at 55°C, extension for 8 min and 30 s at 72°C, final elongation for 10 min at 72°C and final hold at 4°C. After amplification, the products were digested with DpnI (ER1701; Thermo Fisher Scientific) for 1 h at 37°C and transformed into TOP10 chemically competent E. coli (Thermo Fisher Scientific). Plasmids were isolated using a GeneJET Plasmid Miniprep Kit (Thermo Fisher Scientific) according to the manufacturer's protocol, and the generated point mutations were verified by DNA sequencing (Seqlab Microsynth).
as §1

SMILES | IC50 [1] | Inhibition curve/AUC of ASBT→mAsbt mutant compared to wild-type ASBT [2] | Transport inhibition at highest substrate concentration ([2]; 500 μM [3H]TC) | IC50 values at increasing substrate concentrations (in words) ([2]; [3H]TC 0.3-500 μM)
CCCCC1(CCCC)CN(c2ccccc2)c2cc(SC)c(OCC(=O)N[C@@H](C(=O)N[C@@H](CC)C(=O)O)c3ccc(O)cc3)cc2S(=O)(=O)N1 [odevixibat] | 4 µM and 1.6 µM | not different |  | 
CCCCC1(CCCC)CN(c2ccccc2)c2cc(SC)c(OCC(=O)N[C@@H](C(=O)NCC(=O)O)c3ccccc3)cc2S(=O)(=O)C1 [elobixibat] | 4.5 µM and 4.4 µM | not different |  | 

Further lines, with some results ahead:

IC50 [1] | Inhibition curve/AUC of ASBT→mAsbt mutant compared to wild-type ASBT [2] | Transport inhibition at highest substrate concentration ([2]; 500 μM [3H]TC) | SMILES | IC50 values at increasing substrate concentrations (in words) ([2]; [3H]TC 0.3-500 μM)
9 µM and 8.3 µM |  |  | CCCCC1(CCCC)CS(=O)(=O)c2ccc(N(C)C)cc2[C@@H](c2ccc(OCc3ccc(C[N+]45CCN(CC4)CC5)cc3)cc2)[C@H]1O [maralixibat] | 
> 10 µM and 41.3 µM and 30.7 µM | this effect was also observed |  | CCCCC1(CCCC)CS(=O)(=O)c2ccc(N(C)C)cc2[C@@H](c2ccc(OCCCC[N+]34CCN(CC3)CC4)cc2)[C@H]1O [SC-435] | 
> 10 µM and 29.1 µM and 12 µM | significantly reduced the AUC values | full transport inhibition | CCCC[C@]1(CC)CS(=O)(=O)c2cc(CNC(CC(=O)O)CC(=O)O)c(OC)cc2[C@@H](c2ccccc2)N1 [linerixibat] | remained quite stable
